Here are results for twelve molecules from DBAASP.

SMILES strings stand for the structures. Values after ≈ are worked out from the molar mass of the structure shown.

Test systems include Escherichia coli; Pseudomonas aeruginosa; Staphylococcus aureus.
Holding throughout (assay): ≥ marks a high value that may be exact or a test limit, other limits are often not marked, values filed in µg/mL are converted to µM
The test system of test [1] is Escherichia coli ATCC 25922.
In test [2] the test system is Enterococcus faecalis ATCC 29212.
Test [3] relates to Candida albicans ATCC 90028.
Test [4] concerns Staphylococcus aureus ATCC 29213.
Test [5] has as its system Pseudomonas aeruginosa ATCC 27853.

As usually defined, the MIC is the lowest concentration that inhibits growth of the organism. Read a low MIC as greater potency. As for `CSCC[C@H](NC(=O)[C@H](CCCN=C(N)N)NC(=O)[C@H](Cc1c[nH]c2ccccc12)NC(=O)[C@H](CCC(N)=O)NC(=O)[C@H](Cc1c[nH]c2ccccc12)NC(=O)[C@H](CCCN=C(N)N)NC(=O)[C@H](CCCN=C(N)N)NC(=O)[C@H](C)NC(=O)[C@H](CCCCN)NC(=O)[C@@H](N)Cc1ccccc1)C(=O)O` [FKARRWQWRM], the MIC in test [1] stood at 34.2 µM (≈ 50.1 µg/mL); in test [2], 68.4 µM (≈ 100 µg/mL).
With `CC[C@H](C)[C@H](NC(=O)CN)C(=O)N[C@@H](C)C(=O)N[C@@H](CCCCN)C(=O)N[C@@H](Cc1ccccc1)C(=O)NCC(=O)N[C@@H](CCCCN)C(=O)N[C@@H](C)C(=O)N[C@@H](C)C(=O)N[C@@H](C)C(=O)N[C@@H](Cc1cnc[nH]1)C(=O)N[C@@H](Cc1ccccc1)C(=O)NCC(=O)N[C@@H](CCCCN)C(=O)N[C@@H](CCCCN)C(=O)N[C@@H](Cc1c[nH]c2ccccc12)C(=O)N[C@H](C(=O)NCC(=O)N[C@@H](CCC(=O)O)C(=O)N[C@@H](CC(C)C)C(=O)N[C@@H](CCSC)C(=O)N[C@@H](CC(N)=O)C(=O)N[C@@H](CO)C(N)=O)C(C)C` [GIAKFGKAAAHFGKKWVGELMNS], the MIC with Escherichia coli was 75 µM (≈ 184 µg/mL); in the test with Pseudomonas aeruginosa, greater than 75 µM; with Staphylococcus aureus it was greater than 75 µM.
Turning to `CC[C@H](C)[C@H](NC(=O)CN)C(=O)NCC(=O)N[C@@H](CCCCN)C(=O)N[C@@H](Cc1ccccc1)C(=O)N[C@H](C(=O)N[C@@H](Cc1cnc[nH]1)C(=O)N[C@@H](CO)C(=O)N[C@@H](C)C(=O)N[C@@H](CCCCN)C(=O)N[C@@H](CCCCN)C(=O)N[C@@H](Cc1ccccc1)C(=O)NCC(=O)N[C@@H](CCCCN)C(=O)N[C@@H](CC(C)C)C(=O)N[C@@H](Cc1ccccc1)C(=O)N[C@H](C(=O)NCC(=O)N[C@@H](CCC(=O)O)C(=O)N[C@H](C(=O)N[C@@H](CCSC)C(=O)N[C@@H](CC(N)=O)C(=O)N[C@@H](CO)C(N)=O)[C@@H](C)CC)C(C)C)[C@@H](C)CC` [GIGKFIHSAKKFGKLFVGEIMNS], the MIC worked out at 26.9 µM (≈ 67.4 µg/mL) against Escherichia coli, 76 µM (≈ 191 µg/mL) against Pseudomonas aeruginosa and 38 µM (≈ 95.3 µg/mL) in the test with Staphylococcus aureus.
Turning to `CC[C@H](C)[C@H](NC(=O)CN)C(=O)N[C@@H](CCSC)C(=O)N[C@@H](CC(=O)O)C(=O)N[C@H](C(=O)N[C@H](C(=O)N[C@@H](CCCCN)C(=O)N[C@@H](CC(N)=O)C(=O)N[C@@H](C)C(=O)N[C@@H](C)C(=O)N[C@@H](CCCCN)C(=O)N[C@@H](CC(=O)O)C(=O)N[C@@H](CC(C)C)C(=O)N[C@@H](C)C(=O)NCC(=O)N[C@@H](CCC(N)=O)C(=O)N[C@@H](CC(C)C)C(=O)N[C@@H](CC(=O)O)C(=O)N[C@@H](CCCCN)C(=O)N[C@@H](CC(C)C)C(=O)N[C@@H](CCCCN)C(=O)N[C@H]1CSSC[C@@H](C(=O)O)NC(=O)CNC(=O)[C@H]([C@@H](C)O)NC(=O)[C@H]([C@@H](C)CC)NC(=O)[C@H](CCCN=C(N)N)NC1=O)C(C)C)[C@@H](C)O` [GIMDTVKNAAKDLAGQLDKLKCRITGC], the figures for the MIC in test [1] and in test [3] were 23 µM (≈ 65.8 µg/mL) and no less than 130 µM, respectively.
`CC(=O)N[C@@H](CCCCN)C(=O)N[C@@H](CC(C)C)C(=O)N[C@@H](CC(C)C)C(=O)N[C@@H](CCCCN)C(=O)N[C@@H](CC(C)C)C(=O)N[C@@H](CC(C)C)C(=O)N[C@@H](CCCCN)C(=O)N[C@@H](CCCCN)C(=O)N1CCC[C@H]1C(=O)N[C@@H](CC(C)C)C(=O)N[C@@H](CCCCN)C(=O)N[C@@H](CC(C)C)C(=O)N[C@@H](CC(C)C)C(=O)N[C@@H](CCCCN)C(N)=O` [KLLKLLKKPLKLLK]: the MIC in test [1] and in test [4] was greater than 80 µM in each case.
`CC[C@H](C)[C@H](NC(=O)[C@H](CCCN=C(N)N)NC(=O)[C@H](CCC(N)=O)NC(=O)[C@@H](NC(=O)[C@@H](NC(=O)[C@H](CCCN=C(N)N)NC(=O)[C@@H](N)CCCCN)[C@@H](C)CC)C(C)C)C(=O)N[C@@H](CCCCN)C(=O)N[C@@H](C)C(=O)N[C@@H](Cc1ccccc1)C(=O)N[C@@H](CC(C)C)C(=O)N[C@@H](CCCN=C(N)N)C(=O)O` [KRIVQRIKAFLR]: the minimum inhibitory concentration (MIC) amounted to 1.25 µM (≈ 1.91 µg/mL) in test [1], 2.5 µM (≈ 3.82 µg/mL) in test [4], 5 µM (≈ 7.64 µg/mL) in test [3] and 1.25 µM (≈ 1.91 µg/mL) in test [5].
`CC[C@H](C)[C@H](NC(=O)[C@H](CCCN=C(N)N)NC(=O)[C@@H](N)CCCCN)C(=O)N[C@H](C(=O)N[C@@H](CCC(N)=O)C(=O)N[C@@H](CCCN=C(N)N)C(=O)N[C@@H](CCCCN)C(=O)N[C@@H](CCCCN)C(=O)N[C@@H](CC(=O)O)C(=O)N[C@@H](Cc1ccccc1)C(=O)N[C@@H](CC(C)C)C(=O)N[C@@H](CCCN=C(N)N)C(=O)O)C(C)C` [KRIVQRKKDFLR]: the MIC in test [1] was 20 µM (≈ 31.7 µg/mL); in test [4], 40 µM (≈ 63.5 µg/mL); in test [3], no less than 40 µM; in test [5], 40 µM (≈ 63.5 µg/mL).
Regarding `CC[C@H](C)[C@H](NC(=O)[C@H](CCCN=C(N)N)NC(=O)[C@H](CCC(N)=O)NC(=O)[C@@H](NC(=O)[C@H](CCCCN)NC(=O)[C@H](CCCN=C(N)N)NC(=O)[C@@H](N)CCCCN)C(C)C)C(=O)N[C@@H](CCCCN)C(=O)N[C@@H](CC(=O)O)C(=O)N[C@@H](Cc1ccccc1)C(=O)N[C@@H](CC(C)C)C(=O)N[C@@H](CCCN=C(N)N)C(=O)O` [KRKVQRIKDFLR], the MIC in test [1] came to 1.25 µM (≈ 1.98 µg/mL); in test [4], 10 µM (≈ 15.9 µg/mL); in test [3] it was 20 µM (≈ 31.7 µg/mL); in test [5], 2.5 µM (≈ 3.97 µg/mL).
For the molecule `CC(=O)N[C@@H](CC(C)C)C(=O)N[C@@H](CCCCN)C(=O)N[C@@H](CCCCN)C(=O)N[C@@H](CC(C)C)C(=O)N[C@@H](CC(C)C)C(=O)N[C@@H](CCCCN)C(=O)N[C@@H](CC(C)C)C(=O)N[C@@H](CC(C)C)C(=O)N[C@@H](CCCCN)C(=O)N[C@@H](CCCCN)C(=O)N[C@@H](CC(C)C)C(=O)N1CCC[C@H]1C(=O)N[C@@H](CCCCN)C(=O)N[C@@H](CC(C)C)C(N)=O` [LKKLLKLLKKLPKL], the MIC is 5 µM (≈ 8.59 µg/mL) in test [1] and 10 µM (≈ 17.2 µg/mL) in test [4].
The like results for `CC(=O)N[C@@H](CC(C)C)C(=O)N[C@@H](CCCCN)C(=O)N[C@@H](CCCCN)C(=O)N[C@@H](CC(C)C)C(=O)N[C@@H](CC(C)C)C(=O)N[C@@H](CCCCN)C(=O)N[C@@H](CC(C)C)C(=O)N[C@@H](CC(C)C)C(=O)N1CCC[C@H]1C(=O)N[C@@H](CCCCN)C(=O)N[C@@H](CC(C)C)C(=O)N[C@@H](CC(C)C)C(=O)N[C@@H](CCCCN)C(=O)N[C@@H](CC(C)C)C(N)=O` [LKKLLKLLPKLLKL] were, in that order, 5 µM (≈ 8.51 µg/mL) and 2.5 µM (≈ 4.26 µg/mL).
The molecule `CSCC[C@H](NC(=O)[C@@H](NC(=O)[C@H](CCCN=C(N)N)NC(=O)[C@H](Cc1ccccc1)NC(=O)[C@H](C)NC(=O)[C@H](C)NC(=O)[C@H](CCCCN)NC(=O)[C@H](CC(C)C)NC(=O)[C@H](Cc1c[nH]c2ccccc12)NC(=O)[C@H](C)NC(=O)[C@@H]1CCCN1C(=O)[C@@H](N)CCCN=C(N)N)C(C)C)C(=O)N[C@@H](CCCN=C(N)N)C(=O)N[C@@H](C)C(=O)N[C@@H](CS)C(=O)N[C@H](C(N)=O)C(C)C` [RPAWLKAAFRVMRACV] showed an MIC in the test on Pseudomonas aeruginosa of 4.27 µM (≈ 8 µg/mL).
The same measure, in the same setting: then `NC(=O)[C@H](CCCN=C(N)N)NC(=O)[C@H](CCCN=C(N)N)NC(=O)[C@H](Cc1c[nH]c2ccccc12)NC(=O)[C@H](Cc1c[nH]c2ccccc12)NC(=O)[C@H](CCCN=C(N)N)NC(=O)[C@H](CCCN=C(N)N)NC(=O)[C@H](Cc1c[nH]c2ccccc12)NC(=O)[C@H](Cc1c[nH]c2ccccc12)NC(=O)[C@H](Cc1c[nH]c2ccccc12)NC(=O)[C@H](CCCN=C(N)N)NC(=O)[C@H](CCCN=C(N)N)NC(=O)[C@@H](N)CCCN=C(N)N` [RRRWWWRRWWRR], with 1.96 µM (≈ 4 µg/mL).
